The values that follow come from US4294757A, “20-O-Acylmaytansinoids” (Takeda Chemical Industries, Ltd, priority 1979, dated 1981).

The zone of inhibition is the size of the clear area around the sample on an inoculated plate. For orientation: MIC means the least concentration at which growth counts as inhibited.

Values after ≈ are worked out from the molar mass of the structure shown.

The subject of assay [1] is Hamigera avellanea IFO 7721. Put plainly: Antifungal activity against Hamigera avellanea IFO 7721, paper disc method. The assay is classed as cell-based. The settings on record: IFO7721, paper disc 8 mm diameter, 0.02 ml of a 100 μg/ml solution, pH 7.0, read-out: Antifungal activity, φmm (zone of growth inhibition), Hamigera avellanea IFO 7721. The method, then: On the other hand, the antifungal activity of the test compound is assayed against Hamigera avellanea IFO 7721 by the paper disc method, employing agar plates [each containing the medium consisting of 3.5 g of disodium phosphate 0.5 g monopotassium phosphate, 5 g yeast extract (Difco), 10 g glucose, 15 g agar, 1000 ml distilled water, and adjusted to pH 7.0]. Thus, on the plates inoculated with the above microorganism, the zones of growth inhibition are determined using paper discs (supplied by Toyo Seisakusho, Japan, thin-type, 8 mm diameter) immersed with 0.02 ml of a 100 μg/ml solution of 20-O-acylmaytansinoid compound (I).

The next assay deals with Tetrahymena pyriformis W. Put plainly: Antiprotozoal activity against Tetrahymena pyriformis W, serial dilution method. The format is cell-based. The settings on record: 28° C., 44 to 48 hours, pH 7.0. On the procedure:
Then, with Tetrahymena pyriformis W strain used as the test microorganism and a medium composed of 20 g tryptose peptone (Difco), lg yeast extract, 2 g glucose, 1000 ml distilled water and 10 ml of a 1 M phosphate buffer of pH 7.0 as the assay medium, the microorganism is incubated at 28° C. for 44 to 48 hours, and the growth inhibitory activity of said antibiotic compound is assayed by the serial dilution method.

For `COC1/C=C/C=C(\C)Cc2cc(OC(=O)c3ccccc3Br)c(Cl)c(c2)N(C)C(=O)CC(OC(=O)C(C)C)C2(C)OC2C(C)C2CC1(O)NC(=O)O2` (stereo not drawn) [PDM-3 20-o-bromobenzoate, PDM-3 20-ortho-bromobenzoate], the zone of inhibition at 100 µg/mL in assay [1] was determined as 27 mm.

As for `CCCC(=O)Oc1cc2cc(c1Cl)N(C)C(=O)CC(OC(=O)C(C)C)C1(C)OC1C(C)C1CC(O)(NC(=O)O1)C(OC)/C=C/C=C(\C)C2` (stereo not drawn) [PDM-3 20-butyrate], the zone of inhibition at 100 µg/mL in assay [1] worked out at 40 mm.

Take `COC1/C=C/C=C(\C)Cc2cc(OC(=O)CC(C)C)c(Cl)c(c2)N(C)C(=O)CC(OC(=O)C(C)C)C2(C)OC2C(C)C2CC1(O)NC(=O)O2` (stereo not drawn) [PDM-3 20-i-valerate, PDM-3 20-isovalerate]: in assay [1], the zone of inhibition at 100 µg/mL stood at 44 mm. Besides, the MIC against Tetrahymena pyriformis W was 2 µg/mL (≈ 2.84 µM).

As for `COC1/C=C/C=C(\C)Cc2cc(OC(=O)c3ccccc3)c(Cl)c(c2)N(C)C(=O)CC(OC(=O)C(C)C)C2(C)OC2C(C)C2CC1(O)NC(=O)O2` (stereo not drawn) [PDM-3 20-benzoate], in assay [1], the zone of inhibition at 100 µg/mL was found to be 35 mm.

With `C/C=C/C(=O)Oc1cc2cc(c1Cl)N(C)C(=O)CC(OC(=O)C(C)C)C1(C)OC1C(C)C1CC(O)(NC(=O)O1)C(OC)/C=C/C=C(\C)C2` (stereo not drawn) [PDM-3 20-crotonate], in assay [1], the zone of inhibition at 100 µg/mL amounted to 35 mm.

On to `CCC(=O)Oc1cc2cc(c1Cl)N(C)C(=O)CC(OC(=O)C(C)C)C1(C)OC1C(C)C1CC(O)(NC(=O)O1)C(OC)/C=C/C=C(\C)C2` (stereo not drawn) [PDM-3 20-propionate], for which the zone of inhibition at 100 µg/mL in assay [1] was found to be 34 mm. Also, in the assay on Tetrahymena pyriformis W, the MIC was found to be 2 µg/mL (≈ 2.95 µM).

With `COC1/C=C/C=C(\C)Cc2cc(OC(=O)C(C)C)c(Cl)c(c2)N(C)C(=O)CC(OC(=O)C(C)C)C2(C)OC2C(C)C2CC1(O)NC(=O)O2` (stereo not drawn) [PDM-3 20-i-butyrate, PDM-3 20-isobutyrate], in assay [1], the zone of inhibition at 100 µg/mL came to 40 mm.

Consider `COC1/C=C/C=C(\C)Cc2cc(OC(=O)c3ccccn3)c(Cl)c(c2)N(C)C(=O)CC(OC(=O)C(C)C)C2(C)OC2C(C)C2CC1(O)NC(=O)O2` (stereo not drawn) [PDM-3 20-picolinate], for which the zone of inhibition at 100 µg/mL in assay [1] amounted to 21 mm. For the same compound, in the assay on Tetrahymena pyriformis W, the minimal inhibitory concentration (MIC) turned out to be 2 µg/mL (≈ 2.75 µM).

Turning to `CCCCC(=O)Oc1cc2cc(c1Cl)N(C)C(=O)CC(OC(=O)C(C)C)C1(C)OC1C(C)C1CC(O)(NC(=O)O1)C(OC)/C=C/C=C(\C)C2` (stereo not drawn) [PDM-3 20-valerate], the zone of inhibition at 100 µg/mL in assay [1] is 44 mm.

In the case of `COC1/C=C/C=C(\C)Cc2cc(OC(C)=O)c(Cl)c(c2)N(C)C(=O)CC(OC(=O)C(C)C)C2(C)OC2C(C)C2CC1(O)NC(=O)O2` (stereo not drawn) [PDM-3 20-acetate], the zone of inhibition at 100 µg/mL in assay [1] was determined as 31 mm. For the same compound, the MIC with Tetrahymena pyriformis W was 2 µg/mL (≈ 3.02 µM).

With `COC1/C=C/C=C(\C)Cc2cc(OC(=O)C3CCCCC3)c(Cl)c(c2)N(C)C(=O)CC(OC(=O)C(C)C)C2(C)OC2C(C)C2CC1(O)NC(=O)O2` (stereo not drawn) [PDM-3 20-cyclohexylcarboxylate, PDM-3 20-cyclohexanecarboxylate], in assay [1], the zone of inhibition at 100 µg/mL stood at 22 mm.

On to `COC1/C=C/C=C(\C)Cc2cc(OC(=O)Cc3ccccc3)c(Cl)c(c2)N(C)C(=O)CC(OC(=O)C(C)C)C2(C)OC2C(C)C2CC1(O)NC(=O)O2` (stereo not drawn) [PDM-3 20-phenylacetate], for which the zone of inhibition at 100 µg/mL in assay [1] was 31 mm.

Take `COC1/C=C/C=C(\C)Cc2cc(OC(=O)Nc3ccccc3)c(Cl)c(c2)N(C)C(=O)CC(OC(=O)C(C)C)C2(C)OC2C(C)C2CC1(O)NC(=O)O2` (stereo not drawn) [PDM-3 20-phenylcarbamate]: the zone of inhibition at 100 µg/mL in assay [1] stood at 16.5 mm. In addition, the MIC with Tetrahymena pyriformis W is at most 1 µg/mL.
